The source of these data is PubChem BioAssay AID330 (DTP/NCI, 2004).

This experiment relates to P388 leukemia ip, CD2F1 mice, survival T/C. The experiment in a line: NCI In Vivo Anticancer Drug Screen. Data for tumor model P388 Leukemia (intraperitoneal) in CD2F1 (CDF1) mice. As to conditions: endpoint: median survival time, higher = longer survival. The method in brief: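 Mice carrying the transplanted tumor received test compound or vehicle. Survival was recorded in each group, and the value is the treated-group measurement divided by that of the vehicle-treated control group.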

Setting [1] is: dose: 50.0 mg/kg/injection, schedule: Q01DX005 (ip), vehicle: saline.
The mark [2] stands for this setting: dose: 100.0 mg/kg/injection, schedule: Q01DX005 (ip), vehicle: saline.
[3] abbreviates: dose: 200.0 mg/kg/injection, schedule: Q01DX005 (ip), vehicle: saline.
The mark [4] stands for this setting: dose: 60.0 mg/kg/injection, schedule: Q01DX005 (ip), vehicle: saline with Tween-80.
The mark [5] stands for this setting: dose: 120.0 mg/kg/injection, schedule: Q01DX005 (ip), vehicle: saline with Tween-80.
The mark [6] stands for this setting: dose: 240.0 mg/kg/injection, schedule: Q01DX005 (ip), vehicle: saline with Tween-80.
Where [7] appears, read: dose: 12.5 mg/kg/injection, schedule: Q01DX005 (ip), vehicle: saline with Tween-80.
Where [8] appears, read: dose: 25.0 mg/kg/injection, schedule: Q01DX005 (ip), vehicle: saline with Tween-80.
Where [9] appears, read: dose: 50.0 mg/kg/injection, schedule: Q01DX005 (ip), vehicle: saline with Tween-80.
Setting [10] is: dose: 50.0 mg/kg/injection, schedule: Q01DX009 (ip), vehicle: Klucel (hydroxypropylcellulose) (HPC).
[11] abbreviates: dose: 100.0 mg/kg/injection, schedule: Q01DX009 (ip), vehicle: Klucel (hydroxypropylcellulose) (HPC).
Where [12] appears, read: dose: 50.0 mg/kg/injection, schedule: Q01DX009 (ip), vehicle: saline with Tween-80.
[13] abbreviates: dose: 100.0 mg/kg/injection, schedule: Q01DX009 (ip), vehicle: saline with Tween-80.
Setting [14] is: dose: 200.0 mg/kg/injection, schedule: Q01DX009 (ip), vehicle: saline with Tween-80.
[15] abbreviates: dose: 100.0 mg/kg/injection, schedule: Q01DX001 (ip), vehicle: saline with Tween-80.
The mark [16] stands for this setting: dose: 200.0 mg/kg/injection, schedule: Q01DX001 (ip), vehicle: saline with Tween-80.
[17] abbreviates: dose: 400.0 mg/kg/injection, schedule: Q01DX001 (ip), vehicle: saline with Tween-80.
The mark [18] stands for this setting: dose: 50.0 mg/kg/injection, schedule: Q01DX009 (ip), vehicle: saline.
Where [19] appears, read: dose: 100.0 mg/kg/injection, schedule: Q01DX009 (ip), vehicle: saline.
[20] abbreviates: dose: 200.0 mg/kg/injection, schedule: Q01DX009 (ip), vehicle: saline.
Where [21] appears, read: dose: 100.0 mg/kg/injection, schedule: Q01DX005 (ip), vehicle: saline with Tween-80.
Where [22] appears, read: dose: 25.0 mg/kg/injection, schedule: Q01DX009 (ip), vehicle: saline with Tween-80.
Setting [23] is: dose: 50.0 mg/kg/injection, schedule: Q01DX005 (ip), vehicle: Klucel (hydroxypropylcellulose) (HPC).
The mark [24] stands for this setting: dose: 100.0 mg/kg/injection, schedule: Q01DX005 (ip), vehicle: Klucel (hydroxypropylcellulose) (HPC).
[25] abbreviates: dose: 200.0 mg/kg/injection, schedule: Q01DX005 (ip), vehicle: Klucel (hydroxypropylcellulose) (HPC).
The mark [26] stands for this setting: dose: 100.0 mg/kg/injection, schedule: Q04DX003 (ip), vehicle: saline.

Each structure is given as a SMILES string. Values joined by “and” are separate entries in the source; they are usually repeats but may differ in a detail not shown here. Identical values can stand only once. Inconclusive results and toxic doses are left out.

`O=c1oc2ccc(Cl)cc2c(=O)n1-c1cc(Cl)ccc1[N+](=O)[O-]`: the T/C under setting [1] is 100 % of control, the T/C under setting [2] is 99 % of control and the T/C under setting [3] was 104 % of control.
Turning to `O=C(O)C(OC(=O)C(F)(F)F)C(F)(F)C(F)(F)C(F)(F)F` (configuration not stated), the T/C under setting [4] was 95 % of control, the T/C under setting [5] is 89 % of control and the T/C under setting [6] was 99 % of control.
On to `Nc1cc2c(cc1C(=O)N1CCc3ccccc31)OCO2`, for which the T/C (dose: 25.0 mg/kg/injection, schedule: Q01DX009 (ip), vehicle: other) is 106 % of control; the T/C (dose: 50.0 mg/kg/injection, schedule: Q01DX009 (ip), vehicle: other) was 100 % of control; the T/C (dose: 100.0 mg/kg/injection, schedule: Q01DX009 (ip), vehicle: other) was 97 % of control; the T/C (dose: 200.0 mg/kg/injection, schedule: Q01DX009 (ip), vehicle: other) was 90 % of control.
For the compound `Clc1ccc2ccc3ccc(Cl)nc3c2n1`, the T/C reads like this: under setting [4], 92 % of control; under setting [5], 89 % of control; under setting [6], 92 % of control.
`Cc1ncc(N)c2c1OC(C)(C)OC2`: the T/C is 102 % of control under setting [7]; 103 % of control under setting [8]; 99 % of control and 101 % of control under setting [9].
As to `c1ccc2c(c1)[nH]c1cc3c(cc12)CCCCC3`, the T/C by setting is: under setting [4], 107 % of control; under setting [5], 91 % of control; under setting [6], 97 % of control.
For `FC1OC1(F)C12CC3CC(CC(C3)C1)C2` (configuration not stated), the T/C is, setting by setting: under setting [10], 106 % of control; under setting [11], 106 % of control; (dose: 200.0 mg/kg/injection, schedule: Q01DX009 (ip), vehicle: Klucel (hydroxypropylcellulose) (HPC)) 105 % of control.
With `NN(Cc1ccccc1[N+](=O)[O-])c1ccccc1`, the T/C under setting [12] was 100 % of control, the T/C under setting [13] was 86 % of control and the T/C under setting [14] was 101 % of control.
Take `CN1C(C)(C)CC(C)(O)CC1(C)C`: the T/C reads like this: under setting [1], 91 % of control; under setting [2], 94 % of control; under setting [3], 106 % of control.
As for `CSc1ccccc1C(=S)N1CCOCC1`, the T/C was 100 % of control under setting [15], 90 % of control under setting [16] and 109 % of control under setting [17].
For the compound `NC(=O)c1cc([N+](=O)[O-])ccc1N=NN(CCCl)Cc1ccccc1`, the T/C by setting is: (dose: 100.0 mg/kg/injection, schedule: Q04DX003 (ip), vehicle: Klucel (hydroxypropylcellulose) (HPC)) 111 % of control; (dose: 200.0 mg/kg/injection, schedule: Q04DX003 (ip), vehicle: Klucel (hydroxypropylcellulose) (HPC)) 122 % of control; (dose: 400.0 mg/kg/injection, schedule: Q04DX003 (ip), vehicle: Klucel (hydroxypropylcellulose) (HPC)) 162 % of control.
For the compound `CCCCC(O)c1ccc[n+]([O-])c1` (configuration not stated), the T/C was 94 % of control under setting [18], 94 % of control under setting [19] and 93 % of control under setting [20].
In the case of `CC(C)(C=C(c1ccccc1)c1ccccc1)C=C(c1ccccc1)c1ccccc1`, the T/C reads like this: under setting [9], 95 % of control; under setting [21], 98 % of control; (dose: 200.0 mg/kg/injection, schedule: Q01DX005 (ip), vehicle: saline with Tween-80) 95 % of control.
On to `Nc1n[nH]c(N)n1`, for which the T/C runs as follows: under setting [13], 109 % of control; (dose: 800.0 mg/kg/injection, schedule: Q01DX009 (ip), vehicle: saline with Tween-80) 163 % of control.
Turning to `N#Cc1c(Cl)c(Cc2ccccc2)c(Cl)n2c1nc1ccccc12`, the T/C by setting is: under setting [4], 100 % of control; under setting [5], 108 % of control; under setting [6], 99 % of control.
Consider `CCOC1OCN(c2ccc(Cl)cc2)CC1(C)C` (configuration not stated), for which the T/C under setting [22] was 111 % of control; the T/C under setting [12] is 106 % of control and 107 % of control and 93 % of control; the T/C under setting [13] was 100 % of control and 119 % of control; the T/C under setting [14] was 101 % of control and 116 % of control; the T/C (dose: 400.0 mg/kg/injection, schedule: Q01DX009 (ip), vehicle: saline with Tween-80) is 100 % of control and 110 % of control.
On to `COC(=O)Cc1ccccc1-n1nccc1S(C)=O` (configuration not stated), for which the T/C under setting [4] is 109 % of control, the T/C under setting [5] was 104 % of control and the T/C under setting [6] was 106 % of control.
As for `COc1ccc(/C(C)=N/OC(=O)c2sc3ccccc3c2Cl)cc1CN1CCOCC1`, the T/C by setting is: under setting [18], 93 % of control; under setting [19], 97 % of control; under setting [20], 100 % of control.
As to `COCCCNC1=C(Cl)C(=O)c2ccccc2C1=O`, the T/C runs as follows: under setting [12], 99 % of control; under setting [13], 117 % of control; under setting [14], 104 % of control.
For `CN(C)CCCN1CCC2(CCCCC2)CC1`, the T/C is 94 % of control under setting [1], 98 % of control under setting [2] and 109 % of control under setting [3].
For `CN(C)C1=Nc2ccccc2NC(=O)C1`, the T/C is, setting by setting: under setting [23], 105 % of control; under setting [24], 105 % of control; under setting [25], 105 % of control.
As for `ClC1=CCCCC1`, the T/C by setting is: (dose: 25.0 mg/kg/injection, schedule: Q01DX009 (ip), vehicle: saline) 100 % of control; under setting [18], 100 % of control; under setting [19], 110 % of control.
`c1ccc(C2NCCS2)cc1` (configuration not stated): the T/C runs as follows: under setting [23], 100 % of control; under setting [24], 104 % of control; under setting [25], 104 % of control.
For the compound `CCNc1ccc2c(c1)C(=O)N(OS(C)(=O)=O)C2=O`, the T/C under setting [9] is 97 % of control and the T/C under setting [21] was 92 % of control.
`S=C1SSC(=S)C1=C1C=CN(Cc2ccccc2)C=C1`: the T/C is 102 % of control (dose: 25.0 mg/kg/injection, schedule: Q04DX002 (ip), vehicle: saline with Tween-80); 99 % of control (dose: 50.0 mg/kg/injection, schedule: Q04DX002 (ip), vehicle: saline with Tween-80); 100 % of control (dose: 100.0 mg/kg/injection, schedule: Q04DX002 (ip), vehicle: saline with Tween-80).
In the case of `O=C(CCl)Nc1nc(=O)[nH]s1`, the T/C is 107 % of control under setting [10] and 107 % of control under setting [11].
For `CC1=NN(C(=O)c2ccc(Cl)cc2)C(=O)C1N=Nc1ccc(S(=O)(=O)Nc2nc(C)cc(C)n2)cc1` (configuration not stated), the T/C under setting [15] was 92 % of control, the T/C under setting [16] was 86 % of control and the T/C under setting [17] was 89 % of control.
With `Cc1cc(Cl)ccc1N=C(N)N`, the T/C is, setting by setting: (dose: 12.5 mg/kg/injection, schedule: Q01DX009 (ip), vehicle: saline with Tween-80) 100 % of control; under setting [22], 101 % of control; under setting [12], 99 % of control and 107 % of control.
Take `O=C1OC(C(Cl)(Cl)Cl)NC1Cc1ccccc1` (configuration not stated): the T/C by setting is: under setting [12], 107 % of control; under setting [13], 103 % of control; under setting [14], 110 % of control.
For the compound `CNC(=O)N(C)C(C)=O`, the T/C under setting [26] was 123 % of control and 94 % of control; the T/C (dose: 200.0 mg/kg/injection, schedule: Q04DX003 (ip), vehicle: saline) is 99 % of control and 124 % of control.
On to `O=C([O-])CC(=O)[O-].[Cu+2].c1ccc(-c2ccccn2)nc1`, for which the T/C (dose: 6.25 mg/kg/injection, schedule: Q01DX005 (ip), vehicle: saline with Tween-80) was 101 % of control; the T/C under setting [7] was 99 % of control; the T/C under setting [8] is 108 % of control.
In the case of `C/C(=N\NC(=S)N1CCN(C)CC1)c1ccccn1`, the T/C was 104 % of control (dose: 25.0 mg/kg/injection, schedule: Q04DX003 (ip), vehicle: saline); 107 % of control (dose: 50.0 mg/kg/injection, schedule: Q04DX003 (ip), vehicle: saline); 101 % of control under setting [26].
Take `O/C(=C/c1ncnc2ccccc12)c1cccc(Cl)c1`: the T/C under setting [4] is 102 % of control and the T/C under setting [5] is 92 % of control.
